Key:
Format in all cases: biochemical
Lck = biological target: T1, Lck (Homo sapiens, UniProt P06239); experiment: Kinase inhibition assay (33P transfer), Lck; details: Table 3, class symbols; read-out: Lck-1
T1 construct: Kinases are expressed as either kinase domains or full length constructs; made in house
Procedure, shortened: (§1)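 Kinase domains or full-length kinases, GST- or His-tagged and expressed in E. coli or baculovirus/High Five cells, transferred 33PO4 from ATP onto plate-bound poly(Glu,Tyr) 4:1 or poly(Arg,Ser) 3:1. After incubation, plates were washed with 0.5% phosphoric acid and counted by liquid scintillation.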

Zap-70 = biological target: T2, Zap-70 (Homo sapiens, UniProt P43403); experiment: Kinase inhibition assay (33P transfer), Zap-70; details: Table 3, class symbols; read-out: Zap-1
T2 construct: Kinases are expressed as either kinase domains or full length constructs; made in house
T2 sequence (P43403 1-619): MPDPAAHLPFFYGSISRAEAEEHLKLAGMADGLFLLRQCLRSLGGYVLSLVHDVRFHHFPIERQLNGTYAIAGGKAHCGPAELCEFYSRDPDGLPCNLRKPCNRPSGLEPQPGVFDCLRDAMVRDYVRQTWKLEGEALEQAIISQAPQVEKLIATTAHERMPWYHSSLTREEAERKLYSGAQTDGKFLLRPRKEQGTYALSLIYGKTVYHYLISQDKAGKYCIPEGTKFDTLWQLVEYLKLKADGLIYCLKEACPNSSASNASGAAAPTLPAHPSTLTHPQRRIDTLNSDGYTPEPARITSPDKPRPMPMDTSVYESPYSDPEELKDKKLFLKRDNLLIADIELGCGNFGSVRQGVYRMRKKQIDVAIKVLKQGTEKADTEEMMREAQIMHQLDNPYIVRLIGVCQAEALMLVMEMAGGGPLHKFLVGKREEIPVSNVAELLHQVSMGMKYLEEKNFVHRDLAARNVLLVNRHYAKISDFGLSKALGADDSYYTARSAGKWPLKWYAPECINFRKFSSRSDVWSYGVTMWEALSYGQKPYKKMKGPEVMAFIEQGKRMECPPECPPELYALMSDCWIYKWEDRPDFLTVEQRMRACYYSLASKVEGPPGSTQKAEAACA
Procedure, shortened: as §1

Itk = biological target: T3, Itk (Homo sapiens, UniProt Q08881); experiment: Kinase inhibition assay (33P transfer), Itk; details: Table 3, class symbols; read-out: Itk-1
T3 construct: Kinases are expressed as either kinase domains or full length constructs; made in house
T3 sequence (Q08881 1-620): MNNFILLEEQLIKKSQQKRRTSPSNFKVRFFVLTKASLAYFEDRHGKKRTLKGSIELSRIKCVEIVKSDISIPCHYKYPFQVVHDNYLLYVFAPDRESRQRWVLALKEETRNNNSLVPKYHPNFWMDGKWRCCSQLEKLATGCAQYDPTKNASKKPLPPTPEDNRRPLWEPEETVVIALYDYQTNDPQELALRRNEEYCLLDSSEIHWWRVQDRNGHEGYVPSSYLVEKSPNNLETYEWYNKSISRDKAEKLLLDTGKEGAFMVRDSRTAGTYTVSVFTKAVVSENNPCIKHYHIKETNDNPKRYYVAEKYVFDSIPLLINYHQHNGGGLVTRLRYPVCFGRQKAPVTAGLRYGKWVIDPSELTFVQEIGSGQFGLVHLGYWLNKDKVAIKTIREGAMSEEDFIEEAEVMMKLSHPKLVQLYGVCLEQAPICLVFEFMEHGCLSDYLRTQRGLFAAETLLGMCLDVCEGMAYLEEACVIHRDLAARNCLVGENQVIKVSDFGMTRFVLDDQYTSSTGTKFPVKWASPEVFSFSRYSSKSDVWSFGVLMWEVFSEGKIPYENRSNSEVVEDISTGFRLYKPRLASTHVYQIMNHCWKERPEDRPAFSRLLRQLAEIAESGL
Procedure, shortened: (§2)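 IC50: inhibitor concentration lowering 33P incorporation into immobilised substrate by 50%. Label transferred from ATP to poly(Glu,Tyr) 4:1 or poly(Arg,Ser) 3:1 is measured after a 0.5% phosphoric acid wash by liquid scintillation.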

EGFR = biological target: T4, EGFR (Homo sapiens, UniProt P00533); experiment: Kinase inhibition assay (33P transfer), EGFR; details: Table 2, class symbols A-E; read-out: EGFR-1
T4 construct: Kinases are expressed as either kinase domains or full length constructs; made in house
Procedure, shortened: as §2

Kdr = biological target: T5, Kdr (Homo sapiens, UniProt P35968); experiment: Kinase inhibition assay (33P transfer), Kdr; details: Table 3, class symbols; read-out: KDR-1
T5 construct: Kinases are expressed as either kinase domains or full length constructs; made in house
Procedure, shortened: as §1

c-Met = biological target: T6, c-Met (Homo sapiens, UniProt P08581); experiment: Kinase inhibition assay (33P transfer), c-Met; details: Table 2, class symbols A-E; read-out: Met-1
T6 construct: Kinases are expressed as either kinase domains or full length constructs; made in house
Procedure, shortened: as §2

AKT = biological target: T7, AKT (Homo sapiens, UniProt Q9Y243); experiment: Kinase inhibition assay (33P transfer), AKT; details: Table 2, class symbols A-E; read-out: AKT3-1
T7 construct: Kinases are expressed as either kinase domains or full length constructs; made in house
Procedure, shortened: as §1

IGFR-1 = biological target: T8, IGFR-1 (Homo sapiens, UniProt P08069); experiment: Kinase inhibition assay (33P transfer), IGFR-1; details: Table 2, class symbols A-E
T8 construct: Kinases are expressed as either kinase domains or full length constructs; made in house
T8 sequence (P08069 31-1367): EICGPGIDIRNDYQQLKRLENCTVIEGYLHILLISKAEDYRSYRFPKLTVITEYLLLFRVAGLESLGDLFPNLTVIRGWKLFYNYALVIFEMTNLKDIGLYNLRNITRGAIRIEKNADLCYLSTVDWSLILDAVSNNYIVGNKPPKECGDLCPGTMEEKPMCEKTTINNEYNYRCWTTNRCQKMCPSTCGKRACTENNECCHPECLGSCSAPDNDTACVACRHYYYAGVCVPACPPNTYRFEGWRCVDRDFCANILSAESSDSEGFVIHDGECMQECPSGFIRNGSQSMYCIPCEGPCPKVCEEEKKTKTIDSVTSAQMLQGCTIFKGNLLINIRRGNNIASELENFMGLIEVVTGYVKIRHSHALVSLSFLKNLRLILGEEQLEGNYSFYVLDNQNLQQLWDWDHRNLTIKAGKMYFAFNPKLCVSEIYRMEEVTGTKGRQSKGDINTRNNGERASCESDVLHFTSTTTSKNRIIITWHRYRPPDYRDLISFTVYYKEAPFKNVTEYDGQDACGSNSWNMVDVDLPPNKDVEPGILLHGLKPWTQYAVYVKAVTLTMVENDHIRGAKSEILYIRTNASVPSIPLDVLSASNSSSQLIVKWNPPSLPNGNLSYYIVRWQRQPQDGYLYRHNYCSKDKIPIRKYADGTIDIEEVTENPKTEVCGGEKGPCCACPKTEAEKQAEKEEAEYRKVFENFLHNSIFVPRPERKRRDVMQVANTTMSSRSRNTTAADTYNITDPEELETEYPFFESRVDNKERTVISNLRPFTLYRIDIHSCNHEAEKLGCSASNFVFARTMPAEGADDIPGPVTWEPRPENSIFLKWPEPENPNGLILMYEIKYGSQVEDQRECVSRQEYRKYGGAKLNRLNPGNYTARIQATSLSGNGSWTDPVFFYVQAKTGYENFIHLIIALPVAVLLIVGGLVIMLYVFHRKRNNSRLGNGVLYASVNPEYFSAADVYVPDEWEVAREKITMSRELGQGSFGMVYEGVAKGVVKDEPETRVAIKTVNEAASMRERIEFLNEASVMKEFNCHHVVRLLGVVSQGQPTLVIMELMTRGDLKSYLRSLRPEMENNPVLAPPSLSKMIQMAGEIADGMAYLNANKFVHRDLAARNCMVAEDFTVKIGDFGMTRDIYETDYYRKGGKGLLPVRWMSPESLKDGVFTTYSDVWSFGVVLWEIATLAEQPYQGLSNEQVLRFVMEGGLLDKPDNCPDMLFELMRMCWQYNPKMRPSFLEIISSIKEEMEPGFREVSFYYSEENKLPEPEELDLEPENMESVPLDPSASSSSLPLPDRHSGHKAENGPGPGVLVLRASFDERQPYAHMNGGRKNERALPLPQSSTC

T7 sequence (Q9Y243 whole entry, the tested form may be a part): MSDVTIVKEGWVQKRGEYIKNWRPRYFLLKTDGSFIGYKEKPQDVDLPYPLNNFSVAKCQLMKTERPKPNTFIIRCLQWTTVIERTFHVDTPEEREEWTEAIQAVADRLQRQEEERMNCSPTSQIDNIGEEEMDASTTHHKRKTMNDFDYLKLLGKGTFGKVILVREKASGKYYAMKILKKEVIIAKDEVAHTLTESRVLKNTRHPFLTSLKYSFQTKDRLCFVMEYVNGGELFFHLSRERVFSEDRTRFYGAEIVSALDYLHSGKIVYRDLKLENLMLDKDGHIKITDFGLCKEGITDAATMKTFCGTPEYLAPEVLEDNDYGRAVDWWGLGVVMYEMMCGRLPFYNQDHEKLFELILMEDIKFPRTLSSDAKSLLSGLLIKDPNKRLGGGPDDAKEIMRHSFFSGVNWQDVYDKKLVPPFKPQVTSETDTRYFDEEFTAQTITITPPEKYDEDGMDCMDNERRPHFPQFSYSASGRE
T6 sequence (P08581 25-1390): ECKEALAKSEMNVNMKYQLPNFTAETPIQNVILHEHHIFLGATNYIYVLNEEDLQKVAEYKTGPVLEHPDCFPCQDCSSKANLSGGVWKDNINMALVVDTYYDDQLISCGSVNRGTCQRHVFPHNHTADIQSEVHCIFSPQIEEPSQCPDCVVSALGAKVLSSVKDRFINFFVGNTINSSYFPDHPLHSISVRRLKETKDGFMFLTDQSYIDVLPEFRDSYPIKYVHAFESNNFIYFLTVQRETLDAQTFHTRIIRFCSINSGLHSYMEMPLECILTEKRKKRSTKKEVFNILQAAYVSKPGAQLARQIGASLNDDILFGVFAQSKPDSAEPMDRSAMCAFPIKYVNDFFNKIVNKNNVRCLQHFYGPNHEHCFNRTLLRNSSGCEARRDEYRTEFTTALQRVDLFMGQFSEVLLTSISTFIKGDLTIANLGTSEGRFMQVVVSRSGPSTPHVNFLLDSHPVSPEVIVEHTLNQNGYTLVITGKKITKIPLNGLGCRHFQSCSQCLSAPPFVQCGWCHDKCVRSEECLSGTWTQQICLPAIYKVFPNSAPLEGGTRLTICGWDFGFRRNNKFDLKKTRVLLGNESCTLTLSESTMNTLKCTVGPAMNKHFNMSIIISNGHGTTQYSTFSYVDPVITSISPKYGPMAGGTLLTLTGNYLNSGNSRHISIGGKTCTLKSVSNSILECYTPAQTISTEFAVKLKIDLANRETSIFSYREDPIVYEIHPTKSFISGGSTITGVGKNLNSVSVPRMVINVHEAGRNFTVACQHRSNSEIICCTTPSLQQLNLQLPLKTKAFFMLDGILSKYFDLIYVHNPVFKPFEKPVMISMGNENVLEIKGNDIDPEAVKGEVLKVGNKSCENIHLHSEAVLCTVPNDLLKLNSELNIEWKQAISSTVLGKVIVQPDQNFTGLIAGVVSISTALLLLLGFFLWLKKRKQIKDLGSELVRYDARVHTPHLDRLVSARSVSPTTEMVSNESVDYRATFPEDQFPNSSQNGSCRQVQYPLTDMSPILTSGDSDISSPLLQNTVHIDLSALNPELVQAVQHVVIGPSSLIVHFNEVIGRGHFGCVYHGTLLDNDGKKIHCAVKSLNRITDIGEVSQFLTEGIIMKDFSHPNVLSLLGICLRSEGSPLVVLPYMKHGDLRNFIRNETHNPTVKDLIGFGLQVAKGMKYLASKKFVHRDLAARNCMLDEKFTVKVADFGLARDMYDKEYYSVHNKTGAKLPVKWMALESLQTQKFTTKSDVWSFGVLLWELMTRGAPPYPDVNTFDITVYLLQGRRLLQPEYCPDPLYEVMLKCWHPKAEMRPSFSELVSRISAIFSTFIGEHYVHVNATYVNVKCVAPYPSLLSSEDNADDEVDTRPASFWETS
T1 sequence (P06239 whole entry, species assumed, the tested form may be a part): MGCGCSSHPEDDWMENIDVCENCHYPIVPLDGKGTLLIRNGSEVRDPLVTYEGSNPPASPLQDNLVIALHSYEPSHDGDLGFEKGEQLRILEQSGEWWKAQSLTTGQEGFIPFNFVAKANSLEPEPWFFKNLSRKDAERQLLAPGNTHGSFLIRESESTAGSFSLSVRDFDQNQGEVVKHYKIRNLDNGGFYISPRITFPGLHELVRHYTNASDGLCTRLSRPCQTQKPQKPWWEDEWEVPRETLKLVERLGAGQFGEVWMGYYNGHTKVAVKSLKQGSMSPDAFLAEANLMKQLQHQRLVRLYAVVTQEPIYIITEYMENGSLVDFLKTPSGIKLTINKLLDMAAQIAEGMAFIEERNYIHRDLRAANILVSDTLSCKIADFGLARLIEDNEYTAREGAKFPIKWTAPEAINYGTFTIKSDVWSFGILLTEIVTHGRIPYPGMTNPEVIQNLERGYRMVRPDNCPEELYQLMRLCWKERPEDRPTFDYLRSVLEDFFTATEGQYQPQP
T5 sequence (P35968 20-1356, species assumed): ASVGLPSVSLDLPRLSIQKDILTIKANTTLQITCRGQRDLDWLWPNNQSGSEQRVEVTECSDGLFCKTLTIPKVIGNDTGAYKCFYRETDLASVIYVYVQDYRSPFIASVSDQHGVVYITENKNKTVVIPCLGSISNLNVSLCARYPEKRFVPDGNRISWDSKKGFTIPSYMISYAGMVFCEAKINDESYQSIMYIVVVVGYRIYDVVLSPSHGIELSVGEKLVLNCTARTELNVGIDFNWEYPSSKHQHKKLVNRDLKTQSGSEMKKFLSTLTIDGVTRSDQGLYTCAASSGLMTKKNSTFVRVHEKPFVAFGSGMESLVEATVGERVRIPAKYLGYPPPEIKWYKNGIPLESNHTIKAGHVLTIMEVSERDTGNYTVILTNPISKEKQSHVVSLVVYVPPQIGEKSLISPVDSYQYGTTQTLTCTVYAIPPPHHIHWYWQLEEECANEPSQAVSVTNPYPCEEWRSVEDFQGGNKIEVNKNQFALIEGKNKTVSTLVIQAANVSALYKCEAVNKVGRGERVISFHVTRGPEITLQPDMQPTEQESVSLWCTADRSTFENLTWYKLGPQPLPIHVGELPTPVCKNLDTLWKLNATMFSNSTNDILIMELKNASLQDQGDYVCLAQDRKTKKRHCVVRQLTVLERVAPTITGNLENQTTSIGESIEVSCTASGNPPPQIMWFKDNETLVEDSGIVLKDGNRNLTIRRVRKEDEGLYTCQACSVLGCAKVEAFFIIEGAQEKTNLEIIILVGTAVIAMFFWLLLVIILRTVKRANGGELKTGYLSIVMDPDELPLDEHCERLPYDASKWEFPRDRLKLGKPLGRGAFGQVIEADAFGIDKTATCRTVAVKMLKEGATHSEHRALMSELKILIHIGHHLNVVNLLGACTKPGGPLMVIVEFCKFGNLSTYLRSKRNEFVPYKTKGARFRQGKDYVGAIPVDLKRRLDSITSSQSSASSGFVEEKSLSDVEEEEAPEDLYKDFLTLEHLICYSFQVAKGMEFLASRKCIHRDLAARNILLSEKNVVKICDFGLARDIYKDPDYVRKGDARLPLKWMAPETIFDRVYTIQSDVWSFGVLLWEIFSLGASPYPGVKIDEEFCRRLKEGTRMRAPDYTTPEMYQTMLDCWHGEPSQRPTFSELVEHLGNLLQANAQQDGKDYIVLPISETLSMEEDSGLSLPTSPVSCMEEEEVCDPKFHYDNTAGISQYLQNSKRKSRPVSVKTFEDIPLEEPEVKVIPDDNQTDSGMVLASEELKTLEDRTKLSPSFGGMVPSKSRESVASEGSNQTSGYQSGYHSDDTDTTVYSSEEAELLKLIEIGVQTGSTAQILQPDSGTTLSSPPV

Row | SMILES | IC50 (Lck) | IC50 (Zap-70) | IC50 (Itk) | IC50 (EGFR) | IC50 (Kdr) | IC50 (c-Met) | IC50 (AKT) | IC50 (IGFR-1)
1 | COC(=O)c1cccc(Nc2ncnc(-n3c(Cl)nc4ccccc43)n2)c1 [Compound 1066] | > 11.8 µM | > 11.8 µM | > 11.8 µM | 6.3 to 9.19 µM | 6.3 to 9.19 µM | 6.3 to 9.19 µM | 6.3 to 9.19 µM | > 11.8 µM
2 | c1ccc(Nc2ncccc2-c2ncnc(Nc3ccc4[nH]ncc4c3)n2)cc1 [Compound 1117] | > 11.8 µM | > 11.8 µM | > 11.8 µM | 9.2 to 11.8 µM | < 1.05 µM | 1.05 to 6.31 µM | > 11.8 µM | > 11.8 µM
3 | Cc1ccc2c(c1)CCCN2c1ncnc(NCc2ccc(C(=O)O)cc2)n1 [Compound 853] | > 12 µM | > 12 µM | > 12 µM | > 12 µM | > 12 µM | > 12 µM | > 12 µM | > 12 µM

The remaining lines, values ahead:

Row | IC50 (Lck) | IC50 (Zap-70) | IC50 (Itk) | IC50 (EGFR) | IC50 (Kdr) | IC50 (c-Met) | IC50 (AKT) | IC50 (IGFR-1) | SMILES
4 | 1.15 to 6.93 µM | > 13 µM | > 13 µM | 1.15 to 6.93 µM | 6.93 to 10.1 µM | 1.15 to 6.93 µM | 10.1 to 13 µM | 1.15 to 6.93 µM | CC(C)Nc1ncccc1-c1ncnc(Nc2ccc3[nH]ncc3c2)n1 [Compound 1116]
5 | > 11.8 µM | > 11.8 µM | > 11.8 µM | 1.05 to 6.29 µM | > 11.8 µM | > 11.8 µM | > 11.8 µM | > 11.8 µM | Cc1ccc2c(c1)CCCN2c1ncnc(Nc2c(C)ccc3ccccc23)n1 [Compound 854]
6 | 1.08 to 6.48 µM | > 12.1 µM | > 12.1 µM | 1.08 to 6.48 µM | < 1.08 µM | 1.08 to 6.48 µM | > 12.1 µM | > 12.1 µM | OCc1cccc(Nc2ncnc(-c3cccnc3Nc3ccccc3)n2)c1 [Compound 1115]
7 | 5.7 to 8.31 µM | > 10.7 µM | > 10.7 µM | 0.949 to 5.7 µM | 0.949 to 5.7 µM | 0.949 to 5.7 µM | > 10.7 µM | > 10.7 µM | COc1ccc(Nc2ncnc(N(C)c3ccc(OC(F)(F)F)cc3)n2)cc1OC [Compound 866]
